Assay results published in ChEMBL document CHEMBL1153907, “Synthesis and biological evaluation of C-12 triazole and oxadiazole analogs of salvinorin A” (Bioorg Med Chem Lett, 2009).

Experiments:
Mu-type opioid receptor = Mu-type opioid receptor (Rattus norvegicus, UniProt P33535); experiment: Displacement of [3H]diprenorphine from rat mu opioid receptor expressed in CHO cells; type: cell-based
[1] = target: T1, Kappa-type opioid receptor (Homo sapiens, UniProt P41145); experiment: Displacement of [3H]diprenorphine from human kappa opioid receptor expressed in CHO cells; type: cell-based
[2] = target: Delta-type opioid receptor (Mus musculus, UniProt P32300); experiment: Displacement of [3H]diprenorphine from mouse delta opioid receptor expressed in CHO cells; type: cell-based
[3] = target: T1, Kappa-type opioid receptor; experiment: Agonist activity at human kappa opioid receptor expressed in CHO cells assessed as increase in […] [35S]GTPgammaS binding; type: functional, cell-based
[4] = target: T1, Kappa-type opioid receptor; experiment: Displacement of [3H]diprenorphine from human kappa opioid receptor expressed in CHO cells in presence of EGTA; type: cell-based

Mu-type opioid receptor, sequence (P33535 whole entry): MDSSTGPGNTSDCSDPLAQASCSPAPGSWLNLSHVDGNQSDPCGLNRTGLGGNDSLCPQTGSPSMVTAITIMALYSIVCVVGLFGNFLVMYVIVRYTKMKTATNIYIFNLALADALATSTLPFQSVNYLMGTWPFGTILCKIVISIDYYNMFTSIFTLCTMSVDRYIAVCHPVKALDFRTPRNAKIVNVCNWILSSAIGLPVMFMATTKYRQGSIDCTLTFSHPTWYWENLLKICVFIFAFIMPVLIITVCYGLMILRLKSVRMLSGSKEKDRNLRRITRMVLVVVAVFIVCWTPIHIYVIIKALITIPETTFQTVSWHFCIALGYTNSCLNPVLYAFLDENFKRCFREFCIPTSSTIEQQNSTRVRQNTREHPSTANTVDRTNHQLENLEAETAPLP
Delta-type opioid receptor, sequence (P32300 whole entry): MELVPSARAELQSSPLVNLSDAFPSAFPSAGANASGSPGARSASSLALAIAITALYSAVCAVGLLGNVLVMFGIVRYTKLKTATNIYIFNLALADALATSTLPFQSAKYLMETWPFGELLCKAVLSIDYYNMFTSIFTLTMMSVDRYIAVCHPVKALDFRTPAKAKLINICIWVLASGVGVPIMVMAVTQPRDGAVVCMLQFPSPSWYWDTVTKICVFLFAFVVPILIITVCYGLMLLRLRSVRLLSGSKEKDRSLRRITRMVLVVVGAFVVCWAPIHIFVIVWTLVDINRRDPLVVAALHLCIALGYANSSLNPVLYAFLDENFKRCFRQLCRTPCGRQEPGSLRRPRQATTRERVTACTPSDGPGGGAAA
T1 sequence (P41145 whole entry): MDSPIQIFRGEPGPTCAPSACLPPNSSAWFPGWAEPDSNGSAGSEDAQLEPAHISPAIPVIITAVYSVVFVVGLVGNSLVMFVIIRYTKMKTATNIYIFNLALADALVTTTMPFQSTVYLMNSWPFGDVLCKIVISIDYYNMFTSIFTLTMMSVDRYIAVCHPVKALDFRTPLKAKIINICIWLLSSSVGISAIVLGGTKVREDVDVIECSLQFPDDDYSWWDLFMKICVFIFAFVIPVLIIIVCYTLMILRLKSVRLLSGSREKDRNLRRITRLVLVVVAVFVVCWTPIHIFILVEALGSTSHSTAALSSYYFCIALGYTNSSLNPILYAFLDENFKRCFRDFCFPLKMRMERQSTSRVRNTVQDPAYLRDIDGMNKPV

COC(=O)[C@@H]1C[C@H](OC(C)=O)C(=O)[C@H]2[C@@]1(C)CC[C@H]1C(=O)O[C@H](c3cn(C)nn3)C[C@]21C
> 1 µM: Ki (Mu-type opioid receptor) | Ki [1] | Ki [2]

COC(=O)[C@@H]1C[C@H](OC(C)=O)C(=O)[C@H]2[C@@]1(C)CC[C@H]1C(=O)O[C@H](c3cn(COC(=O)C(C)(C)C)nn3)C[C@]21C
> 1 µM: Ki (Mu-type opioid receptor) | Ki [1] | Ki [2]

COC(=O)[C@@H]1C[C@H](OC(C)=O)C(=O)[C@H]2[C@@]1(C)CC[C@H]1C(=O)O[C@H](c3c[nH]nn3)C[C@]21C
> 1 µM: Ki (Mu-type opioid receptor) | Ki [1] | Ki [2]

COC(=O)[C@@H]1C[C@H](OC(C)=O)C(=O)[C@H]2[C@@]1(C)CC[C@H]1C(=O)O[C@H](c3nc(C)no3)C[C@]21C
> 1 µM: Ki (Mu-type opioid receptor) | Ki [1] | EC50 [3] | Ki [4] | Ki [2]

CCn1cc([C@@H]2C[C@]3(C)[C@H]4C(=O)[C@@H](OC(C)=O)C[C@@H](C(=O)OC)[C@]4(C)CC[C@H]3C(=O)O2)nn1
> 1 µM: Ki (Mu-type opioid receptor) | Ki [1] | Ki [2]

COC(=O)[C@@H]1C[C@H](OC(C)=O)C(=O)[C@@H]2[C@@]3(C)C[C@@H](c4c[nH]nn4)OC(=O)[C@H]3CC[C@]21C
> 1 µM: Ki (Mu-type opioid receptor) | Ki [1] | Ki [2]

COC(=O)[C@@H]1C[C@H](OC(C)=O)C(=O)[C@H]2[C@@]1(C)CC[C@H]1C(=O)O[C@H](c3cn(Cc4ccccc4)nn3)C[C@]21C
> 1 µM: Ki (Mu-type opioid receptor) | Ki [1] | Ki [2]
